# Measured values taken from US10934298B2, “Substituted pyrazolo[1,5-a]pyrimidines for the treatment of medical disorders” (BIAL—BioTech Investments, Inc., priority 2016, dated 2021).
# Biological target: T1, glucocerebrosidase (Gcase) (Homo sapiens, UniProt P04062)
# T1 construct: micellar solution containing 10 nM GCase and 100 nM saposin C
# T1 sequence (P04062 40-536): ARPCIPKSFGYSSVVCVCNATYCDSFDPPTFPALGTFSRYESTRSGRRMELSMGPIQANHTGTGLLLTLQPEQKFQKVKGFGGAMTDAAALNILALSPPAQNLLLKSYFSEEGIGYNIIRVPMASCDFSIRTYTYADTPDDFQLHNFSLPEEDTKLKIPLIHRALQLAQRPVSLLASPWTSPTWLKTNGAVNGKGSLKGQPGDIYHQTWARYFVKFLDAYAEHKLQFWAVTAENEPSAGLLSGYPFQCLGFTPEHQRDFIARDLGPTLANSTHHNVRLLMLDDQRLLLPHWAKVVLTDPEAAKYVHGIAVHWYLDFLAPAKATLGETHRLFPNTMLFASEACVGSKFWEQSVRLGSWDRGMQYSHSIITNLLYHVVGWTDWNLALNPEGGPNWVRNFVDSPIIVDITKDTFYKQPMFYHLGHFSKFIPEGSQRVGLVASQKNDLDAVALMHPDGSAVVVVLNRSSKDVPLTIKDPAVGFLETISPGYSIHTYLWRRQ
# Assay: Glucocerebrosidase (Gcase) activation assay with 4-methylumbelliferyl-beta-D-glucopyranoside substrate, saposin C and phosphatidylserine/triton micelles, fluorescence readout
# Type: biochemical
# Procedure, shortened: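 Fluorescence (ex 365 nm, em 440 nm) read after glycine pH 12.5 stop of a 15 min room-temperature reaction. GCase 10 nM plus saposin C 100 nM in PS/triton micelles, pH 4.7, preincubated 30 min with compound; substrate solution held 2 mM 4-MU-beta-glucoside. Screened at 1.0 and 0.1 μM; 8-point, 3-fold curves from 5 μM top.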
"Percent Gcase Activation, 0.1 μM Test Compound (0.1 μM test compound)","Percent Gcase Activation, 1 μM Test Compound (1 μM test compound)","Percent Gcase Activation, 0.1 μM Test Compound (test compound at 0.1 μM)","Percent Gcase Activation, 1 μM Test Compound (test compound at 1.0 μM)",Structure (SMILES),further results
* (less than 10% Gcase activation),+ (less than 30% Gcase activation),–,–,Cc1cc(-c2cccnn2)nc2c(C(=O)NC(C3CC3)C(F)(F)F)cnn12 (centres unmarked) [III-324],–
–,–,*** (greater than 20% Gcase activation),+++ (Gcase activation greater than 60%),Cc1cc(-n2ccc(F)n2)nc2c(C(=O)N[C@@H](C3CC3)C(F)(F)F)cnn12 [III-174],–
*** (greater than 20% Gcase activation),+++ (Gcase activation greater than 60%),–,–,Cc1cc(-c2ccc3ncn(C)c3c2)nc2c(C(=O)N[C@H](C3CC3)C(F)(F)F)cnn12 [III-305],–
* (less than 10% Gcase activation),+ (less than 30% Gcase activation),–,–,Cc1ncccc1-c1cc(C)n2ncc(C(=O)N[C@@H](C3CC3)C(F)(F)F)c2n1 [III-377],–
*** (greater than 20% Gcase activation),+++ (Gcase activation greater than 60%),–,–,Cc1ccc(-c2cc(C)n3ncc(C(=O)N[C@H](C4CC4)C(F)(F)F)c3n2)c(F)n1 [III-372],–
–,–,*** (greater than 20% Gcase activation),+++ (Gcase activation greater than 60%),Cc1cc(-n2ccc(F)n2)nc2c(C(=O)NC(C3CC3)C(F)(F)F)cnn12 (centres unmarked) [III-172],–
*** (greater than 20% Gcase activation),+++ (Gcase activation greater than 60%),–,–,Cc1conc1-c1cc(C)n2ncc(C(=O)N[C@H](C3CC3)C(F)(F)F)c2n1 [III-342],–
*** (greater than 20% Gcase activation),+++ (Gcase activation greater than 60%),–,–,Cc1nscc1-c1cc(C)n2ncc(C(=O)N[C@@H](C3CC3)C(F)(F)F)c2n1 [III-390],–
*** (greater than 20% Gcase activation),+++ (Gcase activation greater than 60%),–,–,Cc1cc(-c2cnccc2C(F)(F)F)nc2c(C(=O)N[C@H](C3CC3)C(F)(F)F)cnn12 [III-353],–
–,–,*** (greater than 20% Gcase activation),+++ (Gcase activation greater than 60%),Cc1cc(-c2ccc3ocnc3c2)nc2c(C(=O)N[C@H](C3CC3)C(F)(F)F)cnn12 [III-109],–
–,–,*** (greater than 20% Gcase activation),+++ (Gcase activation greater than 60%),COc1cc(-c2cc(C)n3ncc(C(=O)NC(C4CC4)C(F)(F)F)c3n2)ccc1F (centres unmarked) [III-147],–
*** (greater than 20% Gcase activation),+++ (Gcase activation greater than 60%),–,–,Cc1cc(-c2ccns2)nc2c(C(=O)NC(C3CC3)C(F)(F)F)cnn12 (centres unmarked) [III-411],–
–,–,*** (greater than 20% Gcase activation),+++ (Gcase activation greater than 60%),Cc1coc(-c2cc(C)n3ncc(C(=O)N[C@@H](C4CC4)C(F)(F)F)c3n2)n1 [III-256],–
–,–,*** (greater than 20% Gcase activation),+++ (Gcase activation greater than 60%),Cc1cc(-c2cccc3ncoc23)nc2c(C(=O)NC(C3CC3)C(F)(F)F)cnn12 (centres unmarked) [III-104],–
–,–,*** (greater than 20% Gcase activation),+++ (Gcase activation greater than 60%),Cc1cc(-c2cncc(F)c2)nc2c(C(=O)N[C@H](C3CC3)C(F)(F)F)cnn12 [III-126],–
–,–,*** (greater than 20% Gcase activation),+++ (Gcase activation greater than 60%),Cc1cc(-c2cccc3c2OCO3)nc2c(C(=O)NC(C3CC3)C(F)(F)F)cnn12 (centres unmarked) [III-183],–

# Further lines, the compound ahead of its results:
Structure (SMILES),"Percent Gcase Activation, 0.1 μM Test Compound (0.1 μM test compound)","Percent Gcase Activation, 1 μM Test Compound (1 μM test compound)","Percent Gcase Activation, 0.1 μM Test Compound (test compound at 0.1 μM)","Percent Gcase Activation, 1 μM Test Compound (test compound at 1.0 μM)",further results
Cc1cc(-c2cncc(C#N)c2)nc2c(C(=O)N[C@@H](C3CC3)C(F)(F)F)cnn12 [III-364],** (Gcase activation in the range of 10% up to 20%),+++ (Gcase activation greater than 60%),–,–,–
Cc1cc(-c2cccc(Cl)n2)nc2c(C(=O)N[C@@H](C)C3CC3)cnn12 [III-131],–,–,*** (greater than 20% Gcase activation),+++ (Gcase activation greater than 60%),–
Cc1cc(-c2cccnc2)nc2c(C(=O)NC(C3CC3)C(F)(F)F)cnn12 (centres unmarked) [III-35],–,–,–,–,"Percent Gcase Activation, 0.1 μM Test Compound (0.1 μM test compound, Table 3A): ** (Gcase activation in the range of 10% up to 20%); Percent Gcase Activation, 1 μM Test Compound (1 μM test compound, Table 3A): +++ (Gcase activation greater than 60%)"
Cc1cc(N2CCN(C(C)C)C2=O)nc2c(C(=O)NC(C)(C)C(F)(F)F)cnn12 [III-231],–,–,* (less than 10% Gcase activation),++ (Gcase activation in the range of 30% up to 60%),–
Cc1cc(N2CCCN(CC(F)(F)F)C2=O)nc2c(C(=O)NC(C3CC3)C(F)(F)F)cnn12 (centres unmarked) [III-260],–,–,* (less than 10% Gcase activation),++ (Gcase activation in the range of 30% up to 60%),–
Cc1cc(-c2cccc(F)c2)nc2c(C(=O)N[C@H](C)C(F)(F)F)cnn12 [III-361],*** (greater than 20% Gcase activation),+++ (Gcase activation greater than 60%),–,–,–
Cc1cc(-c2cc(C#N)ccc2F)nc2c(C(=O)N[C@@H](C)C(F)(F)F)cnn12 [III-352],** (Gcase activation in the range of 10% up to 20%),+++ (Gcase activation greater than 60%),–,–,–
Cc1cc(-c2ccc3ocnc3c2)nc2c(C(=O)N[C@H](C)C(F)(F)F)cnn12 [III-167],–,–,*** (greater than 20% Gcase activation),+++ (Gcase activation greater than 60%),–
Cc1cc(-c2ccc(F)cc2)nc2c(C(=O)N[C@H](C)C3CC3)cnn12 [III-86],–,–,** (Gcase activation in the range of 10% up to 20%),+++ (Gcase activation greater than 60%),–
COCc1cc(-c2cccc(OC)c2)nc2c(C(=O)NC(C)(C)C3CC3)cnn12 [III-79],–,–,–,–,"Percent Gcase Activation, 0.1 μM Test Compound (0.1 μM test compound, Table 3A): *** (greater than 20% Gcase activation); Percent Gcase Activation, 1 μM Test Compound (1 μM test compound, Table 3A): +++ (Gcase activation greater than 60%)"
Cc1cc(N2CCN(c3ccccc3)C2=O)nc2c(C(=O)N[C@H](C)C(F)(F)F)cnn12 [III-329],* (less than 10% Gcase activation),+ (less than 30% Gcase activation),–,–,–
Cc1cc(-n2ccc(Cl)n2)nc2c(C(=O)NC(C3CC3)C(F)(F)F)cnn12 (centres unmarked) [III-107],–,–,*** (greater than 20% Gcase activation),+++ (Gcase activation greater than 60%),–
Cc1cc(N2CCN(C(C)C)C2=O)nc2c(C(=O)N[C@H](C3CC3)C(F)(F)F)cnn12 [III-327],** (Gcase activation in the range of 10% up to 20%),+++ (Gcase activation greater than 60%),–,–,–
Cc1cc(N2CCC(F)(F)CC2)nc2c(C(=O)NC(C)C(F)(F)F)cnn12 (centres unmarked) [III-181],–,–,* (less than 10% Gcase activation),+++ (Gcase activation greater than 60%),–
C#CC(C)(C)NC(=O)c1cnn2c(C)cc(-c3cccc(OC4CC4)c3)nc12 [III-82],–,–,–,–,"Percent Gcase Activation, 0.1 μM Test Compound (0.1 μM test compound, Table 3A): *** (greater than 20% Gcase activation); Percent Gcase Activation, 1 μM Test Compound (1 μM test compound, Table 3A): +++ (Gcase activation greater than 60%)"
Cc1cc(-c2cccc(Cl)n2)nc2c(C(=O)NC(C)(C)C3CC3)cnn12 [III-62],–,–,–,–,"Percent Gcase Activation, 0.1 μM Test Compound (0.1 μM test compound, Table 3A): *** (greater than 20% Gcase activation); Percent Gcase Activation, 1 μM Test Compound (1 μM test compound, Table 3A): +++ (Gcase activation greater than 60%)"
Cc1cc(C)n2ncc(C(=O)NC(C)(C)C3CC4(CCC4)C3)c2n1 [III-13],–,–,–,–,"Percent Gcase Activation, 0.1 μM Test Compound (0.1 μM test compound, Table 3A): *** (greater than 20% Gcase activation); Percent Gcase Activation, 1 μM Test Compound (1 μM test compound, Table 3A): +++ (Gcase activation greater than 60%)"
Cc1cc(-c2ccc(Cl)cn2)nc2c(C(=O)NC(C3CC3)C(F)(F)F)cnn12 (centres unmarked) [III-208],–,–,** (Gcase activation in the range of 10% up to 20%),+ (less than 30% Gcase activation),–
Cc1cc(N2C[C@@H](c3ccccc3)OC2=O)nc2c(C(=O)NC(C3CC3)C(F)(F)F)cnn12 (some centres unmarked) [III-315],*** (greater than 20% Gcase activation),+++ (Gcase activation greater than 60%),–,–,–
COc1ccc(-c2cc(C)n3ncc(C(=O)N[C@@H](C)C(F)(F)F)c3n2)cn1 [III-273],–,–,*** (greater than 20% Gcase activation),+++ (Gcase activation greater than 60%),–
Cc1cc(N2CCCC(F)(F)C2)nc2c(C(=O)NC(C)C(F)(F)F)cnn12 (centres unmarked) [III-179],–,–,*** (greater than 20% Gcase activation),+++ (Gcase activation greater than 60%),–
